Experimental findings from ChEMBL document CHEMBL1147456, “Binding modes of 6,7 di-substituted 4-anilinoquinoline-3-carbonitriles to EGFR” (Bioorg Med Chem Lett, 2004) are described below.

pIC50: −log10 of the molar value.

This assay concerns the target Epidermal growth factor receptor (Homo sapiens, UniProt P00533). In words: Concentration required to inhibit autophosphorylation of cytoplasmic domain of epidermal growth factor receptor (EGFR).

Chain of Epidermal growth factor receptor (P00533 whole entry, the tested form may be a part): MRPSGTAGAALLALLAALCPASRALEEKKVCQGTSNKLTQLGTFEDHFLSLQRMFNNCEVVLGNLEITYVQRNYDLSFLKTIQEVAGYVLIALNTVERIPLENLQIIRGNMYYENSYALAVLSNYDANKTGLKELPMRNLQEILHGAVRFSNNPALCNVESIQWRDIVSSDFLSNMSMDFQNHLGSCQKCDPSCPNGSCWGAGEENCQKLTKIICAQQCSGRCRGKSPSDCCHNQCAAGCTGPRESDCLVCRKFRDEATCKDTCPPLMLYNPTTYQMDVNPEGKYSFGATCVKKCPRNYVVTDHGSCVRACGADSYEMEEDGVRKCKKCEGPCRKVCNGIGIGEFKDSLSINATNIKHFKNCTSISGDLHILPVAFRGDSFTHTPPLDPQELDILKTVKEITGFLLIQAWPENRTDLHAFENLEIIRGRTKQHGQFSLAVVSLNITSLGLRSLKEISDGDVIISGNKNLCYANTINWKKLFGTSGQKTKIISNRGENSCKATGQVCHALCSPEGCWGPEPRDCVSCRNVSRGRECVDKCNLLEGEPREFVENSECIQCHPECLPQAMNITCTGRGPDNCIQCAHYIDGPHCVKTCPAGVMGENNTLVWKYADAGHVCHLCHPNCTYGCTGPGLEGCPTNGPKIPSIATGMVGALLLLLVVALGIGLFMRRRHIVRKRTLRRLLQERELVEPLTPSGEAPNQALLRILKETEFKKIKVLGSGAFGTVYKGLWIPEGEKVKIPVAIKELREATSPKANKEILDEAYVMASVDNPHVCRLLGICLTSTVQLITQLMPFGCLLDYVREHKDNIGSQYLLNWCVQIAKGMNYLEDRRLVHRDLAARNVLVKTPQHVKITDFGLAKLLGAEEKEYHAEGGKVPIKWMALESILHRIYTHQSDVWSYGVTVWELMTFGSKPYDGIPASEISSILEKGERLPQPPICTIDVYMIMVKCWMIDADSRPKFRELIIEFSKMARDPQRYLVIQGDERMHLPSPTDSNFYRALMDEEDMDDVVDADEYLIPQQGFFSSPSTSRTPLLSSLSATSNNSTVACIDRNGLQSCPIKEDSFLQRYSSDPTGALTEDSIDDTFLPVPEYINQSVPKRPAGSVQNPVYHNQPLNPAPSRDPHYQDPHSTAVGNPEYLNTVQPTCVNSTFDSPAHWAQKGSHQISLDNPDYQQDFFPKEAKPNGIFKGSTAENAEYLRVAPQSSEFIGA

Usually pIC50 stands for the negative decadic logarithm of the IC50, by convention in mol/L. The low end stands for a high IC50, the high end for a low IC50. Consider `COC[C@@H]1CCCN1CC#CC(=O)Nc1ccc2ncc(C#N)c(Nc3cccc(Br)c3)c2c1`, for which the pIC50 was 6.82.
